Data: ChEMBL document CHEMBL4433195, “Biphenyloxy-alkyl-piperidine and azepane derivatives as histamine H3 receptor ligands” (Bioorg Med Chem, 2017)

Columns and labels:
Histamine H3 receptor [1] = biological target: T1, Histamine H3 receptor (Homo sapiens, UniProt Q9Y5N1); assay: Displacement of [3H]-N-alpha-methylhistamine from human recombinant full length H3R expressed in HEK293 cell membranes incubated for 90 mins by liquid scintillation counting method
Rattus norvegicus [2] = assay: Reversal of RAMH-induced dipsogenia in Wistar rat (Krf:(WI) WU) assessed as inhibition of RAMH-induced drinking response at 1.25 mg/kg, ip pretreated for 30 mins followed by RAMH stimulation for 20 mins and measured for 30 mins; type: functional
[3] = biological target: T2, Voltage-gated inwardly rectifying potassium channel KCNH2 (Homo sapiens, UniProt Q12809)
T2 sequence (Q12809 whole entry): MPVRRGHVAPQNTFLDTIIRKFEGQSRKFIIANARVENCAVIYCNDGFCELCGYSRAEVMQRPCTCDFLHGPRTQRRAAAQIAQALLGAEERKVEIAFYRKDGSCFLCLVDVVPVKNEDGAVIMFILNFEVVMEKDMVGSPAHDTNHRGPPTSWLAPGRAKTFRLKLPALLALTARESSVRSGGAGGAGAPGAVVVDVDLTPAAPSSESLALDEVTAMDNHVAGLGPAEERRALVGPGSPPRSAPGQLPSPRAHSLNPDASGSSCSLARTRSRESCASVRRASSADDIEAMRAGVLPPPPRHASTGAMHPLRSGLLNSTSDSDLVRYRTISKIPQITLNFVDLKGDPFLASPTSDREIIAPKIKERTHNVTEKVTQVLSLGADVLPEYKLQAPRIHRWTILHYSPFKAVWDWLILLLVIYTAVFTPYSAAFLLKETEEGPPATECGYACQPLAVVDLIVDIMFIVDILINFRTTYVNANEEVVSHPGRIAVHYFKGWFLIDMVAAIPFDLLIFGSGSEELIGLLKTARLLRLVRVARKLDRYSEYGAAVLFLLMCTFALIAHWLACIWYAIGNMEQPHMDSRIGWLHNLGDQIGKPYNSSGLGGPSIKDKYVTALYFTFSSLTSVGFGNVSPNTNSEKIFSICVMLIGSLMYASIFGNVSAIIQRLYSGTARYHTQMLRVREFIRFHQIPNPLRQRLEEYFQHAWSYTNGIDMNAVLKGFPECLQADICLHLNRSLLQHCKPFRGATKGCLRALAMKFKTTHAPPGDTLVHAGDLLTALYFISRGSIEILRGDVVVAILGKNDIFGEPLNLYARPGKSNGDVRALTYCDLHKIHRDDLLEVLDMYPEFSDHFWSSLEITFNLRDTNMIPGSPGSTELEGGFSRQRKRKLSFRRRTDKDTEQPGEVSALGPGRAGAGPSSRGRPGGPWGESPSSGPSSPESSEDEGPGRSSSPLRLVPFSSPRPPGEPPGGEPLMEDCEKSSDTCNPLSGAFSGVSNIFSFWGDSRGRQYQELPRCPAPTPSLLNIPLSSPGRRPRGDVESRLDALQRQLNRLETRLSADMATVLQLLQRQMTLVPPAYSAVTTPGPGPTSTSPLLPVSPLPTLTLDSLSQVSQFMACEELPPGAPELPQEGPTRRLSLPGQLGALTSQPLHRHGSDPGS

[4] = Metabolic stability in rat liver microsomes assessed as metabolite M3 formation at 50 uM preincubated for 5 mins followed by NADPH addition and measured after 30 mins UPLC-MS analysis; type: ADME, Microsome; conditions: 0.5 h
[5] = Half life in rat liver microsomes measured up to 30 mins; type: ADME, Microsome
[6] = Metabolic stability in human recombinant liver microsomes assessed as metabolite M1 formation at 50 uM preincubated for 5 mins followed by NADPH addition and measured after 120 mins by UPLC-MS analysis; type: ADME, Microsome; conditions: 2 h
[7] = Metabolic stability in human recombinant liver microsomes assessed as metabolite M formation at 50 uM preincubated for 5 mins followed by NADPH addition and measured after 120 mins by UPLC-MS analysis; type: ADME, Microsome; conditions: 2 h
Histamine H4 receptor [8] = biological target: T3, Histamine H4 receptor (Homo sapiens, UniProt Q9H3N8); assay: Displacement of [3H]histamine from human recombinant H4R expressed in CHO cells incubated for 60 mins by microbeta scintillation counter method; type: cell-based
T3 sequence (Q9H3N8 whole entry): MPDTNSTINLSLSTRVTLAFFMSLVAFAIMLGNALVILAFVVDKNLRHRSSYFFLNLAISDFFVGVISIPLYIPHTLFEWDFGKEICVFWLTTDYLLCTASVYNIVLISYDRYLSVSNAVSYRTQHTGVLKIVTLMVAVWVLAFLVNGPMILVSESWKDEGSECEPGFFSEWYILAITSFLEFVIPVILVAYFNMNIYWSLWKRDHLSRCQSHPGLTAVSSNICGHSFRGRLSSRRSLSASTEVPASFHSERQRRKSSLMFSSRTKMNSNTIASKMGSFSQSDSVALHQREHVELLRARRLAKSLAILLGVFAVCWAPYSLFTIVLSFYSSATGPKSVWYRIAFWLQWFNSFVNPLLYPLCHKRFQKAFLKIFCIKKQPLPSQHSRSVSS

[9] = Metabolic stability in human recombinant liver microsomes assessed as metabolite M2 formation at 50 uM preincubated for 5 mins followed by NADPH addition and measured after 120 mins by UPLC-MS analysis; type: ADME, Microsome; conditions: 2 h
Rattus norvegicus [10] = organism: Rattus norvegicus; assay: Reversal of RAMH-induced dipsogenia in Wistar rat (Krf:(WI) WU) assessed as inhibition of RAMH-induced drinking response pretreated for 30 mins followed by RAMH stimulation for 20 mins and measured for 30 mins; type: functional
[11] = Metabolic stability in rat liver microsomes assessed as retention time at 50 uM preincubated for 5 mins followed by NADPH addition and measured after 30 mins UPLC-MS analysis; type: ADME, Microsome; conditions: 0.5 h
Cytochrome P450 3A4 [12] = biological target: T4, Cytochrome P450 3A4 (Homo sapiens, UniProt P08684); assay: Inhibition of human recombinant CYP3A4 using luciferin as substrate at 0.025 to 25 uM preincubated for 10 mins followed by substrate addition and measured after 50 mins in presence of NADPH by CYP450-Glo assay; type: ADME; conditions: recombinant enzyme
T4 sequence (P08684 whole entry): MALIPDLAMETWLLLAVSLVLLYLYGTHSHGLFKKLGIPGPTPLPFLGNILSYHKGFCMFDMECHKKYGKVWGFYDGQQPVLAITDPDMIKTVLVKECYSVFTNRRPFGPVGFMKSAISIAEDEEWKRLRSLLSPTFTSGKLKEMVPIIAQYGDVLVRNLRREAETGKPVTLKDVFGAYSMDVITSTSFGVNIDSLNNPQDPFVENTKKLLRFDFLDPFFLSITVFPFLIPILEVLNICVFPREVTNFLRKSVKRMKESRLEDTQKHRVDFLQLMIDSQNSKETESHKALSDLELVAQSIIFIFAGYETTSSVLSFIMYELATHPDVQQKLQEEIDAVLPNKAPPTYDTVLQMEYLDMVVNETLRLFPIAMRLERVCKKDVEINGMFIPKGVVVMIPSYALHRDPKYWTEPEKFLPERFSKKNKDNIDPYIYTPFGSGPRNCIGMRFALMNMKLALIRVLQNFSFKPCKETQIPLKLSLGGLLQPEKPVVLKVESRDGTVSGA

Histamine H3 receptor [13] = biological target: T1, Histamine H3 receptor; assay: Antagonist activity at human H3R expressed in HEK293 cells assessed as reduction in R)(-)-alpha methylhistamine-induced inhibition of forskolin-induced cAMP accumulation by TR-FRET based LANCE ultra cAMP immunoassay; type: functional, cell-based
Histamine H1 receptor [14] = biological target: Histamine H1 receptor (Homo sapiens, UniProt P35367); assay: Displacement of [3H]pyrilamine from human H1 receptor expressed in CHOK1 cells incubated for 60 mins by microbeta scintillation counter method; type: cell-based
Histamine H1 receptor (Homo sapiens, UniProt P35367), sequence (P35367 whole entry): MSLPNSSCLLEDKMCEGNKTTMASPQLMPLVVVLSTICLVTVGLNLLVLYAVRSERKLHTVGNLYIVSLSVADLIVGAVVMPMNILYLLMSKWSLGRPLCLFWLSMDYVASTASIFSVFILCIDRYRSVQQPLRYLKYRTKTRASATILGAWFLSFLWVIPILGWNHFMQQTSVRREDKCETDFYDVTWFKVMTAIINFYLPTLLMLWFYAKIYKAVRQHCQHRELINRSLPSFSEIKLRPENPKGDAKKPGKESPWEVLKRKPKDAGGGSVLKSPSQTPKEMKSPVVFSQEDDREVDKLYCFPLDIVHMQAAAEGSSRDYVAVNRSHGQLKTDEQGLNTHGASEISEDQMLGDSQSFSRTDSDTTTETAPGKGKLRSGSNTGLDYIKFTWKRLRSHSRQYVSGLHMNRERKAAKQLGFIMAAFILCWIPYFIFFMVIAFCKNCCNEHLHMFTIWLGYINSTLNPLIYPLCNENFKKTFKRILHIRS

Histamine H1 receptor [15] = biological target: Histamine H1 receptor (Cavia porcellus, UniProt P31389); assay: (§1) Antagonist activity at histamine H1 receptor in guinea-pig ileum assessed as inhibition of histamine-induced contractions incubated for 15 mins; type: tissue-based; conditions: read-out: pA2 (converted)
Histamine H1 receptor (Cavia porcellus, UniProt P31389), sequence (P31389 whole entry): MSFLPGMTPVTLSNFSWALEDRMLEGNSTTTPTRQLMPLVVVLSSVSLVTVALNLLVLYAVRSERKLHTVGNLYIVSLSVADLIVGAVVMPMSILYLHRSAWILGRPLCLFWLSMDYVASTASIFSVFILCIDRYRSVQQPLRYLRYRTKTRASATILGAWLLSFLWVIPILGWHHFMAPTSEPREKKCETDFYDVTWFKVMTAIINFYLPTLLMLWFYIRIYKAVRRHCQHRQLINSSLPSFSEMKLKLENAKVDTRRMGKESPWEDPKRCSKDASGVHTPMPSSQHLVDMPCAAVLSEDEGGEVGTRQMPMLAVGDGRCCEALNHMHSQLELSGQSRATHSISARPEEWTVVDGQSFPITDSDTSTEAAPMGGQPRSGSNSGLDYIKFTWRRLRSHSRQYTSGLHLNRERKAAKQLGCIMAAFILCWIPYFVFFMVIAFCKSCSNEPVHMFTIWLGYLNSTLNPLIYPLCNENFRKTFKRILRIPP

[16] = biological target: Histamine H1 receptor (Cavia porcellus) (UniProt P31389); assay: as §1; type: tissue-based
Histamine H1 receptor (Cavia porcellus), sequence (P31389 whole entry): as above

[17] = Metabolic stability in rat liver microsomes assessed as metabolite M1 formation at 50 uM preincubated for 5 mins followed by NADPH addition and measured after 30 mins UPLC-MS analysis; type: ADME, Microsome; conditions: 0.5 h
[18] = biological target: Muscarinic acetylcholine receptor M3 (Cavia porcellus) (UniProt Q8VH26); assay: Antagonist activity at muscarinic M3 receptor in guinea-pig ileum assessed as inhibition of carbachol-induced contractions incubated for 15 mins; type: tissue-based
Muscarinic acetylcholine receptor M3 (Cavia porcellus), sequence (Q8VH26 1-587): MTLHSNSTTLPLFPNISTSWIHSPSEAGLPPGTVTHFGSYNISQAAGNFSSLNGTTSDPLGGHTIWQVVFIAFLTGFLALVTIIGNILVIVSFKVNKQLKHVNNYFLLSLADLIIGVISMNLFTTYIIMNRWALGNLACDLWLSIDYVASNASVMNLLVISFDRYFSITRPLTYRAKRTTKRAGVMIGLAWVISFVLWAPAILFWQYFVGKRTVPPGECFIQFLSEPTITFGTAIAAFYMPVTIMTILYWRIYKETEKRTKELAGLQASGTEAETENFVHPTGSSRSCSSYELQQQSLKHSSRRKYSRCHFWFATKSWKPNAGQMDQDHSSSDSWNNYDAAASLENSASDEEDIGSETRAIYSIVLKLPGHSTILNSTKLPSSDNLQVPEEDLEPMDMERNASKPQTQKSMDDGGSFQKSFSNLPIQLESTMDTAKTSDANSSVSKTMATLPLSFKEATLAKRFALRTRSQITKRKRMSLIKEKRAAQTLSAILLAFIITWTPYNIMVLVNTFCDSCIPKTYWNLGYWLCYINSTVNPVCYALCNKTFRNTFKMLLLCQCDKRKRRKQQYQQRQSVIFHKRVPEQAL

[19] = Intrinsic clearance in rat liver microsomes measured up to 30 mins; type: ADME, Microsome; conditions: read-out: CLH
[20] = Metabolic stability in rat liver microsomes assessed as metabolite M2 formation at 50 uM preincubated for 5 mins followed by NADPH addition and measured after 30 mins UPLC-MS analysis; type: ADME, Microsome; conditions: 0.5 h
Cytochrome P450 3A4 [21] = biological target: T4, Cytochrome P450 3A4; assay: Activation of human recombinant CYP3A4 using luciferin as substrate at 12.5 to 25 uM preincubated for 10 mins followed by substrate addition and measured after 50 mins in presence of NADPH by CYP450-Glo assay; type: ADME; conditions: recombinant enzyme
Cytochrome P450 2D6 = Cytochrome P450 2D6 (Homo sapiens, UniProt P10635); assay: Inhibition of human recombinant CYP2D6 at >2.5 uM using luciferin as substrate preincubated for 10 mins followed by substrate addition and measured after 50 mins in presence of NADPH by CYP450-Glo assay; type: ADME; conditions: recombinant enzyme
Cytochrome P450 2D6, sequence (P10635 whole entry): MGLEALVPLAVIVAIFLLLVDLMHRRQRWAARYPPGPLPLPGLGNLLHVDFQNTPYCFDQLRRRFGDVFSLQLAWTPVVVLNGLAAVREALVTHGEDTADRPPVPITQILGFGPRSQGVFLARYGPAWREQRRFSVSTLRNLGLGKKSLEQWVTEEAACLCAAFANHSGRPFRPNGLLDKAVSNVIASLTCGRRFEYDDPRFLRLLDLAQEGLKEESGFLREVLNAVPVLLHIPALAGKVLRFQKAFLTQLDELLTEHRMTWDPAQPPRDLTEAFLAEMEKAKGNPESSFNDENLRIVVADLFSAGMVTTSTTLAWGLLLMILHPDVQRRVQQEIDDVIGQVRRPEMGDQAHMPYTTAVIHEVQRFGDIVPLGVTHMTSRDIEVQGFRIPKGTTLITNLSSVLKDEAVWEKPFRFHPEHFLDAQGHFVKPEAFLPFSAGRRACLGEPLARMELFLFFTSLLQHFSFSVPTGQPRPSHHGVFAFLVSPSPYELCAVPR

[22] = Metabolic stability in human recombinant liver microsomes assessed as metabolite M3 formation at 50 uM preincubated for 5 mins followed by NADPH addition and measured after 120 mins by UPLC-MS analysis; type: ADME, Microsome; conditions: 2 h
[23] = Metabolic stability in human recombinant liver microsomes assessed as retention time at 50 uM preincubated for 5 mins followed by NADPH addition and measured after 120 mins by UPLC-MS analysis; type: ADME, Microsome; conditions: 2 h
HepG2 = assay: Cytotoxicity against human HepG2 cells assessed as cell viability incubated for 72 hrs by cellTiter 96 AQueous non-radioactive cell proliferation assay; type: cell-based; conditions: HepG2, 72 h
[24] = biological target: T2, Voltage-gated inwardly rectifying potassium channel KCNH2; assay: Displacement of [3H]Dofetilide from human ERG human expressed in HEK293 cells incubated for 45 mins; type: cell-based
Histamine H4 receptor [25] = biological target: T3, Histamine H4 receptor; assay: Antagonist activity at human H4R expressed in HEK293 cells incubated for 20 mins by [35S]GTPgammaS binding assay; type: functional, cell-based
Histamine H3 receptor [26] = biological target: T1, Histamine H3 receptor; assay: Binding affinity to human H3R
[27] = Ratio of test compound IC50 to doxorubicin IC50 for cytotoxicity against human HepG2 cells assessed as cell viability incubated for 72 hrs by cellTiter 96 AQueous non-radioactive cell proliferation assay; type: cell-based; conditions: read-out: Ratio IC50
[28] = Mutagenicity in Salmonella typhimurium TA100 assessed as fold increase in number of positive wells over the solvent control baseline upto 10 uM incuabted for 90 mins and measured after 48 hrs by Ames test; type: toxicity; conditions: salmonella enterica subsp. enterica serovar typhimurium
[29] = Mutagenicity in Salmonella typhimurium TA98 assessed as fold increase in number of positive wells over the solvent control baseline upto 10 uM incuabted for 90 mins and measured after 48 hrs by Ames test; type: toxicity; conditions: salmonella enterica subsp. enterica serovar typhimurium
Homo sapiens = organism: Homo sapiens; assay: Selectivity ratio of Ki for human H4R to Ki for human H3R
Histamine H4 receptor [30] = biological target: T3, Histamine H4 receptor; assay: Binding affinity to human H4R
Histamine H3 receptor [31] = biological target: T1, Histamine H3 receptor; assay: Binding affinity to human H3R expressed in rat C6 cells; type: cell-based

T1 sequence (Q9Y5N1 whole entry): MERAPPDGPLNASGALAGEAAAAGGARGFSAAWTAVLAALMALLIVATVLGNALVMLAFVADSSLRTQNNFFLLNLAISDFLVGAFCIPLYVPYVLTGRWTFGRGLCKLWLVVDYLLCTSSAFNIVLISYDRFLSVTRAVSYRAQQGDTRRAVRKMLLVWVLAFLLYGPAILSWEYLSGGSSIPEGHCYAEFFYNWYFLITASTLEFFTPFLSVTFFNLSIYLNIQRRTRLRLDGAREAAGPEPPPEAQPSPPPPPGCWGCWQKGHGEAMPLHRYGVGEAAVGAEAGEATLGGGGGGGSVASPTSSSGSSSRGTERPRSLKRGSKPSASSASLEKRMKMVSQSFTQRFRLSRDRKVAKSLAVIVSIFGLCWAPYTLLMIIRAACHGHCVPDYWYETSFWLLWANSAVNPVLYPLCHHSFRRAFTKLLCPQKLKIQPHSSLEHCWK

c1ccc(-c2ccc(OCCCCCCN3CCCCC3)cc2)cc1
Ki (Histamine H3 receptor [1]): 92 nM

CC1CCN(CCCCCCOc2ccc(-c3ccccc3)cc2)CC1
Ki (Histamine H3 receptor [1]): 266 nM

c1ccc(-c2cccc(OCCCCCCN3CCCCCC3)c2)cc1
Ki (Histamine H3 receptor [1]): 18 nM

Clc1ccc(CCCOCCCN2CCCCC2)cc1 [PITOLISANT]
inhibition in vivo at 1.25 mg/kg (Rattus norvegicus [2]): 87% | IC50 [3]: 1700 nM

c1ccc(-c2ccc(OCCCCCCN3CCCCCC3)cc2)cc1
Ki (Histamine H3 receptor [1]): 151 nM

O=C(O)C(=O)O.c1ccc(-c2ccc(OCCCCCN3CCCCCC3)cc2)cc1
Drug metabolism [4]: Metabolite_Detected | half-life [5]: 23.6 min | Drug metabolism [6]: Metabolite_Detected | Drug metabolism [7]: Metabolite_Detected | Ki (Histamine H4 receptor [8]): 21800 nM | Drug metabolism [9]: Metabolite_Detected | ED50 (Rattus norvegicus [10]): 1.75 mg/kg | inhibition (Rattus norvegicus [10]): Dose-dependent effect | Retention_time [11]: 6 min | inhibition (INH) (Cytochrome P450 3A4 [12]): Not Active | Ki (Histamine H3 receptor [1]): 34 nM | Activity (Histamine H3 receptor [13]): Dose-dependent effect | IC50 (Histamine H3 receptor [13]): 9.08 nM | Ki (Histamine H1 receptor [14]): 1270 nM | Kb (Histamine H1 receptor [15]): 724 nM | Activity [16]: Dose-dependent effect | Drug metabolism [17]: Metabolite_Detected | pKb [18]: 6.16 | CLint scaled [19]: 52.9 mL/min/kg | Drug metabolism [20]: Metabolite_Detected | Activity (Cytochrome P450 3A4 [21]): Active | inhibition (INH) (Cytochrome P450 2D6): Active | Drug metabolism [22]: Metabolite_Detected | Retention_time [23]: 6.08 min

CN1[C@@H]2CC[C@H]1C[C@@H](OC(=O)C(CO)c1ccccc1)C2 (stereo partly drawn)
pKb [18]: 8.99

c1ccc(-c2cccc(OCCCCCN3CCCCC3)c2)cc1
Ki (Histamine H3 receptor [1]): 76 nM

CC(C)(C)c1ccc(OCCCN2CCCCC2)cc1
Ki (Histamine H3 receptor [1]): 131 nM

COc1cccc2c1C(=O)c1c(O)c3c(c(O)c1C2=O)C[C@@](O)(C(=O)CO)C[C@@H]3O[C@H]1C[C@H](N)[C@H](O)[C@H](C)O1 [DOXORUBICIN]
IC50 (HepG2): 392 nM

CN1C[C@H]2CCN(c3ccc(-c4ccc(-n5ncccc5=O)cc4)cc3)[C@H]2C1
Ki [24]: 8830 nM | Ki (Histamine H4 receptor [25]): > 10000 nM

c1ccc(-c2cccc(OCCCCCCN3CCCCC3)c2)cc1
Ki (Histamine H3 receptor [1]): 122 nM

CC1CCN(CCCCCOc2ccc(-c3ccccc3)cc2)CC1
Ki (Histamine H3 receptor [1]): 89 nM

c1ccc(CN(CC2=NCCN2)c2ccccc2)cc1 [ANTAZOLINE]
Kb (Histamine H1 receptor [15]): 72.4 nM

C[C@@H]1CCCN1[C@H]1C[C@H](c2ccc(-c3ccc(C#N)cc3)cc2)C1
Ki (Histamine H3 receptor [26]): 0.17 nM

O=C(O)C(=O)O.c1ccc(-c2ccc(OCCCCCN3CCCCC3)cc2)cc1
Drug metabolism [6]: Metabolite_Notdetected | Drug metabolism [7]: Metabolite_Notdetected | Ki (Histamine H4 receptor [8]): 19900 nM | Drug metabolism [9]: Metabolite_Notdetected | ED50 (Rattus norvegicus [10]): 2.72 mg/kg | inhibition (Rattus norvegicus [10]): Dose-dependent effect | selectivity ratio at 72 h [27]: > 30 | inhibition (INH) (Cytochrome P450 3A4 [12]): Not Active | Ki (Histamine H3 receptor [1]): 25 nM | Activity (Histamine H3 receptor [13]): Dose-dependent effect | IC50 (Histamine H3 receptor [13]): 4.04 nM | fold change (FC) [28]: < 2 | fold change (FC) [29]: < 2 | Kb (Histamine H1 receptor [15]): 295 nM | Activity [16]: Dose-dependent effect | pKb [18]: 6.35 | IC50 [3]: 1750 nM | Activity (Cytochrome P450 3A4 [21]): Active | IC50 (HepG2): 17200 nM | inhibition (INH) (Cytochrome P450 2D6): Active | Drug metabolism [22]: Metabolite_Notdetected | Retention_time [23]: 5.83 min | Ratio Ki (Homo sapiens): 600

CC1CCN(CCCCCCOc2cccc(-c3ccccc3)c2)CC1
Ki (Histamine H3 receptor [1]): 159 nM

CC1CCN(CCCCCOc2cccc(-c3ccccc3)c2)CC1
Ki (Histamine H3 receptor [1]): 157 nM

c1ccc(-c2cccc(OCCCCCN3CCCCCC3)c2)cc1
Ki (Histamine H3 receptor [1]): 115 nM

C[C@@H]1CC[C@@H](C)N1CCCOc1ccc(-c2ccc(C(=O)N3CCOCC3)cc2)cc1
Ki (Histamine H4 receptor [30]): > 10000 nM | Ki (Histamine H3 receptor [31]): 0.42 nM
